# Where two headings read alike, the source gives them in different places. Strand notation (5' to 3'): a small letter for the sugar, then the base; units joined by * are phosphorothioate-linked, units joined directly phosphodiester-linked; [ ] holds rarer units or linkages, { } end groups; capitals alone tell only the bases. {m7GpppGm} = cap: 7-methylguanosine 5'-5' triphosphate-linked to 2'-O-methylguanosine; {m7GpppG} = cap: 7-methylguanosine 5'-5' triphosphate-linked to guanosine; r = 2'-OH (RNA)
# Test system: CAT protein expression in 76 cells expressing RNA polymerases (PB1, PB2, and PA) and NP protein of influenza A virus (A/PR/8/34)
# Format: cell-based
Substance,inhibition of CAT protein expression (in words) (concentration not specified),inhibition of CAT protein expression (in words) (high dose (0.3 μM))
m^7GpppGmAAUACUC ({m7GpppGm}-rArArUrArCrUrC) [Gm8],significant inhibition,–
"m^7GpppGmAAUACUCAAACU ({m7GpppGm}-rArArUrArCrUrCrArArArCrU) [Gm13, reference compound]",weak inhibition,little inhibition
m^7GpppG AAUACUC ({m7GpppG}-rArArUrArCrUrC) [G8],significant inhibition,–

# — patent US6495675B1, “Pharmaceutical composition for treating or preventing influenza, and novel capped oligonucleotide” (Chiba Institute of Technology, priority 1997, dated 2002)
